Assay results reported in patent EP1579856A1 (LABORATOIRES BESINS INTERNATIONAL, priority 2004, dated 2005).
Like-named read-outs stand apart in the source and are kept apart here. Marks after values point to notes of the source that are not given here.

Columns and labels:
[1] = Group 2: 4-OHT gel (20 mg/100 g) 0.5 mg/day, both breasts, 3-4 weeks; n=5; cited from earlier work
clinical = assay: clinical; set-up: species or system women; conditions: in vivo
Description: At the end of a menstrual cycle, each patient received a single dose, after which serial blood samples were collected at 0, 0.5, 1, 1.5, 2, 3, 4, 6, 12, 18, 24, 36, 48, and 72 hours.

[2] = in vivo
Description: (§1) The patients received [^3H]-labeled drug applied directly on the affected breasts at specified intervals ranging from 12 hours to 7 days before surgery to excise diseased tissue. Breast tissue from three regions: the tumor, tissue immediately surrounding the tumor, and normal tissue, was excised and immediately frozen in liquid nitrogen. Additionally, plasma and urine samples were obtained at scheduled intervals and frozen until analysis.

rat liver = conditions: in vivo; cited from earlier work
[3] = percutaneous dose of 1 mg/breast/day; cited from earlier work
[4] = in vivo; remark: listed apart in the source
Description: as §1

estrone sulphatase = molecular target: T1, estrone sulphatase (Homo sapiens, UniProt P08842); conditions: mammary cancer cell lines; cited from earlier work
T1 construct: estrone sulphatase activity in mammary cancer cell lines; endogenous in cells
T1 sequence (P08842 22-583): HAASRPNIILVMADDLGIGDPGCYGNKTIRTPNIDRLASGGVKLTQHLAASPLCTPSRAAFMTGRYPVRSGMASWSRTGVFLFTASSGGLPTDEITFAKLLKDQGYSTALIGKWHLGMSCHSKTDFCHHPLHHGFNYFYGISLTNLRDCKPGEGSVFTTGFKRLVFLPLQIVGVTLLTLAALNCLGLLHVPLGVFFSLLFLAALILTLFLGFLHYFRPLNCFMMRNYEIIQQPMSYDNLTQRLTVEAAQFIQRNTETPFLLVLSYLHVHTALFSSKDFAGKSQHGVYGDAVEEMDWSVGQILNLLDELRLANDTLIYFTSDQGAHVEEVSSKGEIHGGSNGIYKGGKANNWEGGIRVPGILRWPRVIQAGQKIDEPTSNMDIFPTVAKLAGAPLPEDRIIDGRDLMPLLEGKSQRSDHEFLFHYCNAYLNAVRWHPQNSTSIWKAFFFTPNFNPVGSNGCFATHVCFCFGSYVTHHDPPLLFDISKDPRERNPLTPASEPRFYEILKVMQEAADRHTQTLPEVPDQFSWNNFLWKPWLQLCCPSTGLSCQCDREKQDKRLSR

[5] = in vivo; remark: listed apart in the source
Description: Each participant applied the gel daily for the duration of two menstrual cycles.
On the first day of the following menstruation, treatment, which consisted of daily application of the gel over two menstrual cycles, began. Blood samples were collected 24 hours following the morning application of gel on days 7, 20 and 25 of the first and second cycles. On the last day of administration, day 25 of the second menstrual cycle, serial blood samples were collected prior to application and at 0.5, 1, 1.5, 2, 3, 4, 6, 12, 18, 24, 36, 48, and 72 hours after application of the gel.

estrogen receptors = conditions: more affinity than tamoxifen; cited from earlier work
[6] = in vivo; remark: listed apart in the source
Description: as §1

[7] = Example 1 follow-up study: radioactivity and metabolites in blood
Description: as §1

[8] = system: normal human epithelial breast cells; conditions: more than Z-tamoxifen; cited from earlier work
[9] = Example 1 follow-up study: radioactivity and metabolites in breast tissue after percutaneous application; conditions: for % Metabolites in Breast Tissue: breast tumor tissue
Description: as §1

[10] = system: p53(-) normal human mammary epithelial cells; conditions: cited from earlier work
[11] = cited from earlier work
[12] = cited from earlier work; remark: listed apart in the source
[13] = oral tamoxifen group, 20 mg/day

CCC(=C(c1ccc(O)cc1)c1ccc(OCCN(C)C)cc1)c1ccccc1 [4-hydroxy tamoxifen, 1-[4-(2-N-dimethylaminoethoxy)phenyl]-1-(4-hydroxyphenyl)-2-phenylbut-1-ene]
Mean ± SD 4-hydroxy tamoxifen (Range), Plasma Concentrations, Day Pre-Surgery [1]: 0 (0 - 0)^a pg/mL | t1/2 (Range) (clinical; human, topical or ocular): (49 - 101) hr | half-life (clinical; human, topical or ocular, t1/2 (Range)): 58 to 118 h | patients with detectable plasma concentrations (>5 pg/mL) (clinical): 6 of 12 | % of radioactivity in blood represented by [2]: 68% | rat liver carcinogen (rat liver): not | 4-hydroxy tamoxifen concentration in breast tissue exceeds normal estradiol concentrations in breast tissue by a factor of [3]: 4 | distribution within breast tissue [4]: concentrated predominantly in the cytosolic and nuclear fractions of breast tissue | metabolism in intracellular sites of breast tissue [4]: remained unmetabolized except for limited isomerization from the Z to the E form | retention in the breast [4]: approximately 4 days | inhibitory effect on estrone sulphatase activity (estrone sulphatase): significant inhibitory effect | laboratory or clinical evidence of systemic effects [5]: no detectable | affinity for estrogen receptors (estrogen receptors): 100 fold | peak urinary elimination [6]: later time

CCC(=C(c1ccc(O)cc1)c1ccc(OCCNC)cc1)c1ccccc1 [N-Desmethyl-4-Hydroxy Tamoxifen]
% of radioactivity in blood represented by ([7]; 24 hours after percutaneous administration of [3H]-4-hydroxy tamoxifen): 18%

CC/C(=C(\c1ccc(O)cc1)c1ccc(OCCN(C)C)cc1)c1ccccc1 [Z-4-hydroxy tamoxifen]
inhibits the growth in culture of normal human epithelial breast cells [8]: 100 fold

CC/C(=C(\c1ccccc1)c1ccc(OCCN(C)C)cc1)c1ccccc1 [[^3H]-tamoxifen, reference compound]
plateau of radioactivity in blood ([7]; percutaneous application): 2 days

CC/C(=C(\c1ccccc1)c1ccc(OCCN(C)C)cc1)c1ccccc1 [tamoxifen]
% Metabolites in Breast Tissue ([9]; Day 4 after percutaneous administration of Z-[3H]-4-hydroxy tamoxifen to the affected breast): <1% | % Metabolites in Breast Tissue ([9]; Day 7 after percutaneous administration of Z-[3H]-4-hydroxy tamoxifen to the affected breast): 2% | retention in the breast ([9]; percutaneous application of [3H]-labeled drug): shorter and far weaker | rat liver carcinogen (rat liver): potent rat liver carcinogen | initiates apoptosis [10]: initiates apoptosis | decrease of risk of benign breast disease ([11]; cyst): 34% | decrease of risk of benign breast disease ([11]; duct ectasia): 28% | decrease of risk of benign breast disease ([11]; fibrocystic disease): 33% | decrease of risk of benign breast disease ([11]; hyperplasia): 40% | reduces the risk of developing benign breast disease ([11]; overall): 28% | reduction of the need for breast biopsies ([11]; women under 50): 41% | inhibitory effect on estrone sulphatase activity (estrone sulphatase): little or no effect | side effects reported by one person ([12]; Group 2 (0.5 mg/day gel): seventh day of treatment, Group 1 (oral tamoxifen): fifth day of treatment): hot flashes and mild vaginitis | anti-thrombin III and fibrinogen, pre- versus post treatment [12, 13]: statistically significant decrease | platelet and lymphocyte counts, pre- versus post treatment [12, 13]: statistically significant increase
